Experimental data taken from patent US20110184188A1, “Insecticidal Benzenedicarboxamide Derivative” (priority 2008, published 2011).

Assay: logP(acid) by reverse phase (C18) chromatography at pH 2.3
Type: physicochemical
[1] = reverse phase (C18) chromatography, pH 2.3
[2] = reverse phase (C18) chromatography at pH 2.3

| logP (acid) [1] | SMILES | also measured |
| --- | --- | --- |
| logP (acid) 3.45 | CSC[C@H](C)NC(=O)c1c(Cl)cccc1C(=O)Nc1ccc(Cn2nc(C(F)(F)C(F)F)nc2C(F)(F)F)nc1C [14-311] |  |
| logP (acid) 1.37 | Cc1nc(Cn2nc(C(F)(F)F)n(C)c2=O)ccc1NC(=O)c1cccc(Cl)c1C(=O)N[C@@H](C)C[S+](C)[O-] (stereo partly shown) [14-321] |  |
| logP (acid) 1.60 | Cc1nc(Cn2nc(C(F)(F)F)n(C)c2=O)ccc1NC(=O)c1cccc(Cl)c1C(=O)N[C@@H](C)CS(C)(=O)=O [14-322] |  |
| logP (acid) 2.57 | CSC[C@H](C)NC(=O)c1c(Cl)cccc1C(=O)Nc1ccc(Cn2nc(C(F)(F)F)n(C3CC3)c2=O)nc1C [14-323] |  |
| logP (acid) 3.68 | CSC[C@H](C)NC(=O)c1c(Cl)cccc1C(=O)Nc1ccc(Cn2nc(C(F)(F)C(F)(F)F)n(C(F)F)c2=O)cc1C [14-328] |  |
| logP (acid) 2.5 | Cc1cc(Cn2nc(C(F)(F)C(F)(F)F)n(C(F)F)c2=O)ccc1NC(=O)c1cccc(Cl)c1C(=O)N[C@@H](C)C[S+](C)[O-] (stereo partly shown) [14-329] |  |
| logP (acid) 2.85 | Cc1cc(Cn2nc(C(F)(F)C(F)(F)F)n(C(F)F)c2=O)ccc1NC(=O)c1cccc(Cl)c1C(=O)N[C@@H](C)CS(C)(=O)=O [14-330] |  |
| logP (acid) 3.75 | CSC[C@H](C)NC(=O)c1c(Br)cccc1C(=O)Nc1ccc(Cn2nc(C(F)(F)C(F)(F)F)n(C(F)F)c2=O)cc1C [14-331] |  |
| logP (acid) 3.11 | CSC[C@H](C)NC(=O)c1c(I)cccc1C(=O)Nc1ccc(Cn2nc(C(F)(F)C(F)(F)F)n(C(F)F)c2=O)cc1C [14-334] |  |
| logP (acid) 3.22 | Cc1cc(Cn2nnc(-c3ccc(C(F)(F)F)cc3)n2)ccc1NC(=O)c1cccc(Br)c1C(=O)N[C@@H](C)CS(C)(=O)=O [14-348] |  |
| logP (acid) 3.23 | Cc1cc(Cn2nnc(-c3ccc(C(F)(F)F)cc3)n2)ccc1NC(=O)c1cccc(Cl)c1C(=O)N[C@@H](C)CS(C)(=O)=O [14-349] |  |
| logP (acid) 3.11 | CSC[C@H](C)NC(=O)c1c(Cl)cccc1C(=O)Nc1ccc(Cn2nc(C(F)(F)F)nc2NC(=O)C(F)(F)F)cc1C [14-353] |  |
| logP (acid) 3.79 | Cc1cc(Cn2nc(C(F)(F)C(F)(F)F)nc2C(F)(F)F)ccc1NC(=O)c1cccc(Cl)c1C(=O)NC(C)CC1(C)OCCCO1 (stereo not shown) [14-357] |  |
| logP (acid) 3.95 | Cc1cc(Cn2nc(C(F)(F)C(F)(F)F)nc2C(F)(F)F)ccc1NC(=O)c1cccc(I)c1C(=O)NC(C)CC1(C)OCCCO1 (stereo not shown) [14-358] |  |
| logP (acid) 4.06 | Cc1cc(Cn2nc(C(F)(F)C(F)(F)F)nc2C(F)(F)F)ccc1NC(=O)c1cccc(Br)c1C(=O)NC(C)CC1(C)OCCCO1 (stereo not shown) [14-359] |  |
| logP (acid) 3.86 | Cc1cc(Cn2nc(C(F)(F)C(F)(F)F)nc2C(F)(F)F)ccc1NC(=O)c1cccc(Cl)c1C(=O)NC(C)CC1(C)OCCO1 (stereo not shown) [14-360] |  |
| logP (acid) 3.95 | Cc1cc(Cn2nc(C(F)(F)C(F)(F)F)nc2C(F)(F)F)ccc1NC(=O)c1cccc(I)c1C(=O)NC(C)CC1(C)OCCO1 (stereo not shown) [14-361] |  |
| logP (acid) 3.92 | Cc1cc(Cn2nc(C(F)(F)C(F)(F)F)nc2C(F)(F)F)ccc1NC(=O)c1cccc(Br)c1C(=O)NC(C)CC1(C)OCCO1 (stereo not shown) [14-362] |  |
| logP (acid) 4.03 | CO/N=C(\C)CC(C)NC(=O)c1c(Br)cccc1C(=O)Nc1ccc(Cn2nc(C(F)(F)C(F)(F)F)nc2C(F)(F)F)cc1C (stereo not shown) [14-363] |  |
| logP (acid) 2.98 | CSC[C@H](C)NC(=O)c1c(C(=O)Nc2ccc(Cn3nc(C(F)(F)F)nc3C(F)(F)F)nc2C)cccc1S(C)(=O)=O [14-364] |  |
| logP (acid) 3.30 | CSC[C@H](C)NC(=O)c1c(C(=O)Nc2ccc(Cn3nc(C(F)(F)F)nc3C(F)(F)F)nc2C)cccc1S(=O)(=O)N(C)C [14-365] |  |
| logP (acid) 2.07 | Cc1nc(Cn2nc(C(F)(F)F)nc2C(F)(F)F)ccc1NC(=O)c1cccc(S(C)(=O)=O)c1C(=O)N[C@@H](C)C[S+](C)[O-] (stereo partly shown) [14-366] |  |

More lines, now with the values behind:

| SMILES | logP (acid) [1] | also measured |
| --- | --- | --- |
| CCN(CC)CC(C)NC(=O)c1cccc(Cl)c1C(=O)Nc1ccc(Cn2nc(C(F)(F)F)cc2C(F)(F)F)nc1C (stereo not shown) [13-285] | logP (acid) 2.53 |  |
| CSC[C@H](C)NC(=O)c1c(C(=O)Nc2ccc(Cn3nc(C(F)(F)F)cc3C(F)(F)F)nc2C)cccc1S(C)(=O)=O [13-286] | logP (acid) 3.21 |  |
| Cc1nc(Cn2nc(C(F)(F)F)cc2C(F)(F)F)ccc1NC(=O)c1cccc(S(=O)(=O)N(C)C)c1C(=O)N[C@@H](C)CS(C)(=O)=O [13-289] | logP (acid) 2.75 |  |
| CSC[C@H](C)NC(=O)c1c(C(=O)Nc2ccc(Cn3cc(C(F)(F)C(F)(F)F)c(C(F)(F)C(F)(F)F)n3)nc2C)cccc1S(C)(=O)=O [13-290] | logP (acid) 3.80 |  |
| CSC[C@H](C)NC(=O)c1c(SC)cccc1C(=O)Nc1ccc(Cn2nc(C(F)(F)C(F)(F)F)c(C(F)(F)F)c2F)cc1C [13-308] | logP (acid) 4.43 |  |
| CSC[C@H](C)NC(=O)c1c(SC)cccc1C(=O)Nc1ccc(Cn2nc(C(F)(F)C(F)(F)F)cc2C(F)(F)F)cc1C [13-310] | logP (acid) 4.74 |  |
| CSC[C@H](C)NC(=O)c1c(C(=O)Nc2ccc(Cn3nc(C(F)(F)C(F)(F)F)cc3C(F)(F)F)cc2C)cccc1S(C)(=O)=O [13-311] | logP (acid) 4.20 |  |
| CSC[C@H](C)NC(=O)c1c(SC)cccc1C(=O)Nc1ccc(Cn2nc(C(F)(F)C(F)(F)F)cc2C(=O)C(F)(F)F)cc1C [13-325] | logP (acid) 3.50 |  |
| CSC[C@H](C)NC(=O)c1c(SC)cccc1C(=O)Nc1ccc(Cn2nc(C(F)(F)C(F)(F)F)cc2C(F)(F)C(F)(F)F)nc1C [13-342] | logP (acid) 4.45 |  |
| CSc1cccc(C(=O)Nc2ccc(Cn3nc(C(F)(F)C(F)(F)F)cc3C(F)(F)F)nc2C)c1C(=O)N[C@@H](C)C[S+](C)[O-] (stereo partly shown) [13-343] | logP (acid) 2.78 |  |
| CCS(=O)(=O)c1cccc(C(=O)Nc2ccc(Cn3nc(C(F)(F)F)cc3C(F)(F)F)cc2C)c1C(=O)N[C@@H](C)CSC [13-346] | logP (acid) 3.74 |  |
| Cc1cc(Cn2nc(C(F)(F)F)cc2C(F)(F)F)ccc1NC(=O)c1cccc(S(=O)(=O)N(C)C)c1C(=O)N[C@@H](C)CS(C)(=O)=O [13-349] | logP (acid) 3.07 |  |
| CSC[C@H](C)NC(=O)c1c(Cl)cccc1C(=O)Nc1ccc(N(C)c2c(C(F)(F)F)c(C(F)(F)C(F)(F)F)nn2C)nc1C [13-353] | logP (acid) 4.19 |  |
| Cc1nc(N(C)c2c(C(F)(F)F)c(C(F)(F)C(F)(F)F)nn2C)ccc1NC(=O)c1cccc(Cl)c1C(=O)N[C@@H](C)C[S+](C)[O-] (stereo partly shown) [13-354] | logP (acid) 2.91 |  |
| Cc1nc(Cn2c(C(F)(F)F)nc(Cl)c2Cl)ccc1NC(=O)c1cccc(Cl)c1C(=O)N[C@@H](C)C[S+](C)[O-] (stereo partly shown) [13-363] | logP (acid) 2.17 |  |
| Cc1nc(Cn2c(C(F)(F)F)nc(Cl)c2Cl)ccc1NC(=O)c1cccc(Cl)c1C(=O)N[C@@H](C)CS(C)(=O)=O [13-364] | logP (acid) 2.59 |  |
| CSC[C@H](C)NC(=O)c1c(Cl)cccc1C(=O)Nc1ccc(Cn2c(C(F)(F)F)nc(Cl)c2Cl)nc1C [13-502] |  | logP (acid) [2]: 3.50 |
| CSCC(C)NC(=O)c1c(Cl)cccc1C(=O)Nc1ccc(Cn2nc(C(F)(F)C(F)F)nc2C(F)(F)C(F)F)nc1C (stereo not shown) [14-31] |  | Physical property logP (acid) [2]: logP (acid) 3.33 |

| SMILES | logP (acid) [1] | also measured |
| --- | --- | --- |
| CCSc1nc(C(F)(F)F)nn1Cc1ccc(NC(=O)c2cccc(Cl)c2C(=O)NC(C)CSC)c(C)c1 (stereo not shown) [14-38] |  | Physical property logP (acid) [2]: logP (acid) 4.13 |
| CSCC(C)NC(=O)c1c(Cl)cccc1C(=O)Nc1ccc(Cn2nc(C(F)(F)F)nc2SC(C)C)cc1C (stereo not shown) [14-39] |  | Physical property logP (acid) [2]: logP (acid) 4.13 |
| CCCCCSc1nc(C(F)(F)F)nn1Cc1ccc(NC(=O)c2cccc(Cl)c2C(=O)NC(C)CSC)c(C)c1 (stereo not shown) [14-40] |  | Physical property logP (acid) [2]: logP (acid) 4.91 |
| Cc1nc(Cn2nc(C(F)(F)C(F)(F)F)nc2C(F)(F)F)ccc1NC(=O)c1cccc(Cl)c1C(=O)NC(C)C[S+](C)[O-] (stereo not shown) [14-60] |  | Physical property logP (acid) [2]: logP (acid) 2.59 |
| CSC[C@H](C)NC(=O)c1c(Cl)cccc1C(=O)Nc1cnc(Cn2nc(C(F)(F)F)nc2C(F)(F)F)cc1C [14-268] | logP (acid) 3.26 |  |
| CSC[C@H](C)NC(=O)c1c(Br)cccc1C(=O)Nc1cnc(Cn2nc(C(F)(F)F)nc2C(F)(F)F)cc1C [14-271] | logP (acid) 3.37 |  |
| CSC[C@H](C)NC(=O)c1c(I)cccc1C(=O)Nc1cnc(Cn2nc(C(F)(F)F)nc2C(F)(F)F)cc1C [14-274] | logP (acid) 3.44 |  |
| CC(=O)CC(C)NC(=O)c1c(Cl)cccc1C(=O)Nc1ccc(Cn2nc(C(F)(F)C(F)(F)F)nc2C(F)(F)F)cc1C (stereo not shown) [14-295] | logP (acid) 3.56 |  |
| CC(=O)CC(C)NC(=O)c1c(Br)cccc1C(=O)Nc1ccc(Cn2nc(C(F)(F)C(F)(F)F)nc2C(F)(F)F)cc1C (stereo not shown) [14-296] | logP (acid) 3.46 |  |
| CC(=O)CC(C)NC(=O)c1c(I)cccc1C(=O)Nc1ccc(Cn2nc(C(F)(F)C(F)(F)F)nc2C(F)(F)F)cc1C (stereo not shown) [14-297] | logP (acid) 3.70 |  |
| CC(=O)OC[C@H](C)NC(=O)c1c(Cl)cccc1C(=O)Nc1ccc(Cn2nc(C(F)(F)F)nc2C(F)(F)F)cc1C [14-298] | logP (acid) 3.08 |  |
| CSC[C@H](C)NC(=O)c1c(Br)cncc1C(=O)Nc1ccc(Cn2nc(C(F)(F)C(F)(F)F)nc2C(F)(F)F)cc1C [14-300] | logP (acid) 3.84 |  |
| CSC[C@H](C)NC(=O)c1c(Br)cccc1C(=O)Nc1ccc(Cn2cnc(C(F)(F)C(F)F)n2)nc1C [14-302] | logP (acid) 2.48 |  |
| CSC[C@H](C)NC(=O)c1c(Cl)cccc1C(=O)Nc1ccc(Cn2nnc(-c3ccc(C(F)(F)F)cc3)n2)cc1C [14-305] | logP (acid) 4.08 |  |
| CSC[C@H](C)NC(=O)c1c(Cl)cccc1C(=O)Nc1ccc(Cn2nnc(C(F)(F)F)n2)nc1C [14-306] | logP (acid) 2.91 |  |
| CSC[C@H](C)NC(=O)c1c(Cl)cccc1C(=O)Nc1ccc(Cn2nnc(C(F)(F)C(F)(F)C(F)(F)F)n2)nc1C [14-307] | logP (acid) 3.71 |  |
| CSC[C@H](C)NC(=O)c1c(Cl)cccc1C(=O)Nc1ccc(Cn2cnc(C(F)(F)C(F)F)n2)nc1C [14-309] | logP (acid) 2.38 |  |
| CSC[C@H](C)NC(=O)c1c(Cl)cccc1C(=O)Nc1ccc(Cn2cnc(C(F)(F)C(F)(F)C(F)(F)F)n2)nc1C [14-310] | logP (acid) 3.16 |  |
